US20240002467A1, “COMPOSITIONS AND METHODS OF INHIBITING THE BINDING OF PLASMA IGG AUTOANTIBODIES TO SEROTONIN 2A RECEPTOR” (UNITED STATES GOVERNMENT AS REPRESENTED BY THE DEPARTMENT …, priority 2020, published 2024)
Several values for one entry are separate records, joined by “and”; a condition that tells them apart may be missing. Equal entries are not always repeated. Ends that are not written are not given here. * marks the point of attachment. Myristoyl = CCCCCCCCCCCCCC(=O)*

Assays:
[1] = tested on: Zucker diabetic fatty rats; experiment: Observation of side effects / tolerability in ZDF rats
[2] = tested on: male Zucker diabetic fatty rats; experiment: Tail cuff blood pressure in male ZDF rats after IP peptide; format: in vivo, rat; settings: two 13-week-old male ZDF rats, myristolated 2.5 mg/kg single IP
[3] = tested on: male Zucker diabetic fatty rats; experiment: as above; format: in vivo, rat; settings: for systolic blood pressure-lowering at 4 hours post-administration vs baseline: Experiment 2: two male ZDF rats; for Acute Peak diastolic blood pressure-lowering / Acute Peak mean arterial blood pressure-lowering / Acute Peak systolic blood pressure-lowering / Duration of Action, diastolic BP / Duration of Action, mean arterial BP / Duration of Action, systolic BP: two male ZDF rats
Procedure: Animals. Male ZDF and lean (+/?) Zucker rats were obtained from Charles River Laboratories (Kingston, NY) at approximately 6-7 weeks of age. The rats were single housed upon arrival, without enrichment. Rats were acclimatized for two weeks prior to experimental procedures. Rats were provided ad libitum access to food and water and maintained in a 12 h light/dark cycle with lights on at 0630. The procedures occurred during the light phase of the cycle. Blood pressure testing (following acute or chronic administration of the decoy peptides) was conducted in three separate cohorts of animals.
Cohort 1: Three 25-week-old male ZDF and three, age-matched, male Zucker lean rats (ZLR) treated with IP decoy peptide 2 (ZDF) vs saline (vehicle) (ZLR).
Cohort 2: Eleven-week old male ZDF (n=5) and Zucker lean rats (n=4) treated with IP decoy peptide 2.
Cohort 3: Twelve 8.5-week old male Zucker diabetic fatty rats were randomly assigned to one of three treatment groups (n=4/group). The rats underwent baseline blood pressure determinations using tail-cuff plethysmography technique. Next, the animals who expressed baseline hypertension, i.e., blood pressure >135/85, received either a 1 mg/kg intraperitoneal injection of pegylated decoy peptide 2 (n=3); a 2 mg/kg intraperitoneal dose of a scrambled decoy peptide 2 (n=4); or vehicle (i.e., sterile saline) (N=4). Blood pressure was determined at 15 minutes, 45 minutes, 4 hours, 8 hours, 24 hours, 30 and 48 hours following single IP injection. One week later, the same two groups of ZDF rats received either 0.75 mg/kg IP pegylated decoy peptide 2, 2 mg/kg scrambled decoy peptide 2, or sterile saline; and blood pressure was determined at similar timepoints. Two weeks later, two groups of 12-week-old ZDF rats (n=6/group) including those that had previously received acute peglyated decoy peptide 2 or scrambled decoy peptide 2 were treated on an alternative daily schedule with IP, free decoy peptide 2 (2 mg/kg) vs IP scrambled decoy peptide 2 (2 mg/kg) continuously for 13 weeks until sacrifice at 25 weeks of age. Body weight was determined immediately before sacrifice and after perfusion; and hearts were excised and weighed for determination of the heart-to-(perfused) body weight ratio.
Blood pressure monitoring. Tail cuff blood pressure measurement was performed using an automated CODA noninvasive blood pressure system (Kent Scientific, Torrington, CT). Rats were placed on an insulated warming platform in a well-heated room to ensure proper body temperature. Cuff monitors were provided in different sizes to accommodate rats of different ages and having different body weights. After the animal was positioned in the clear plastic restraint holder, the appropriate-sized cuff was slid over the rat's tail.
Statistical Analysis. Comparisons were made using Student's unpaired t-test (Tables 3-6, 9 and FIG. 18) or time series analysis (Tables 7, 8, FIG. 16).
Blood pressure monitoring. Tail cuff blood pressure measurement was performed using an automated CODA noninvasive blood pressure system (Kent Scientific, Torrington, CT.). Rats were placed on an insulated warming platform in a well-heated room to ensure proper body temperature. Cuff monitors were provided in different sizes to accommodate rats of different ages and having different body weights. After the animal was positioned in the clear plastic restraint holder, the appropriate-sized cuff was slid over the rat's tail.
Experiment 1: Four 12-week-old male ZDF rats were randomly assigned to receive either a single IP injection of a scrambled sequence (SEQ ID NO: 7) of Peptide ID #2 (SEQ ID NO: 2) at 1 mg/kg concentration or a 1 mg/kg concentration of myristolated Peptide ID #2 (SEQ ID NO: 9). Blood pressure was determined using tail cuff plethysmography (Kent Scientific) at 1, 4, 6, 48 and 72 hours post-injection.
Experiment 2: Six 12-week-old male ZDF rats were assigned to each of three treatment groups (N=2/group). […]

[4] = Solubility in water on reconstitution; format: physicochemical; settings: compared with unconjugated peptide; reconstituted in DMSO first
Procedure: Synthetic peptides. The peptides were synthesized at Lifetein Inc. (Hillborough, NJ). The lyophilized peptides were aliquoted and stored (in the presence of desiccant) at −40° C. prior to use. On the day of intraperitoneal (IP) administration, an aliquot of lyophilized unconjugated peptide was reconstituted in sterile saline at the appropriate concentration of 2 mg/kg. Reconstituted peptide was prepared fresh before each injection. […] The final concentration of DMSO in sterile saline was 10%. The vehicle, DMSO in sterile saline, was tested independently and had no effect on blood pressure when administered as an IP injection.

[5] = 11-week-old male ZDF rats (N=4/group), single IP Myr-peptide 2 2 mg/kg vs scrambled 1 mg/kg (reference = 0), over 6 days
[6] = Experiment 1: myristolated 1 mg/kg single IP
[7] = four 11-12-week-old male ZDF rats, single 2 mg/kg IP
[8] = male ZDF rats before single 2 mg/kg IP, unconjugated: two 25-week-old, myristolated: four 11-12-week-old
[9] = male ZDF rats, single 2 mg/kg IP, unconjugated: two 25-week-old, myristolated: four 11-12-week-old
[10] = single 2 mg/kg IP vs 1 mg/kg scrambled
[11] = myristolated 1 mg/kg single IP, listed as Myristolated Peptide 2
[12] = myristolated 1.5 mg/kg single IP
[13] = myristolated 1.5 mg/kg single IP, listed as Myristolated Peptide 2
[14] = myristolated 2.0 mg/kg single IP
[15] = myristolated 2.0 mg/kg single IP, listed as Myristolated Peptide 2
[16] = myristolated 2.5 mg/kg single IP
[17] = myristolated 2.5 mg/kg single IP, listed as Myr Peptide 2
[18] = myristolated 2.5 mg/kg single IP, listed as Myristolated Peptide 2

## Myr-SCLLADDN (Myristoyl-SCLLADDN) [myristolated Peptide ID 2]
[1]; Experiment 1: male ZDF rats, myristolated 1 mg/kg IP
  adverse physical or behavioral effects: No discernable adverse physical or behavioral effects
[1]; ten ZDF rats (Expt 1 and 2), up to 14-21 days after single IP
  untoward physical or behavioral effect: None of the ten rats tested (N=4 in Expt 1; N=6 in Expt 2) experienced any untoward physical or behavioral effect
[2]; listed as myristolated decoy Peptide 2
  duration of persistent blood pressure lowering: 9 days
[2]; listed as myristolated decoy peptide 2
  duration of persistent blood pressure lowering: 8 days
[3]; [5]
  Estimate: diastolic blood pressure lowering effect vs scrambled peptide (time series): −12.0471
  Estimate: systolic blood pressure lowering effect vs scrambled peptide (time series): −17.4393
[3]; Experiment 1: male ZDF rats (N=2/group), 1 mg/kg single IP
  effect on diastolic blood pressure, in words: rapid-onset diastolic blood pressure lowering
[3]; [6]
  effect on systolic blood pressure, in words: significantly lower at 1, 4, 6 hours and 48 hours post-baseline, but not at 72 hours
  time span of significantly reduced mean arterial blood pressure: 1 to 72 h
[3]; Experiment 2: myristolated 1 mg/kg IP, one value per rat
  persistence of systolic blood pressure-lowering: 48 to 72 h and 96 to 168 h
[3]; Experiment 2: myristolated 1 mg/kg IP, rat 1 / rat 2
  persistence of declines in diastolic and mean arterial blood pressure: 2 to 3 days and 4 to 7 days
[3]; Experiment 2: myristolated 1.5 mg/kg IP
  persistence of systolic blood pressure-lowering: up to 168 hours
[3]; Experiment 2: myristolated 1.5 mg/kg IP, both rats
  persistence of blood pressure-lowering: up to 7 days
[3]; myristolated 1 mg/kg IP
  systolic blood pressure-lowering at 4 hours post-administration vs baseline: 8-11%
[3]; myristolated 1.5 mg/kg IP
  systolic blood pressure-lowering at 4 hours post-administration vs baseline: 13%
[3]; [7]
  mean diastolic BP, 72 hours: 80
  mean diastolic BP, 6 days: 85
  mean diastolic BP, 7 days: 94
  mean systolic BP, 72 hours: 126
  mean systolic BP, 6 days: 127
  mean systolic BP, 7 days: 142
[3]; [8]
  mean diastolic BP, Baseline: 97
  mean systolic BP, Baseline: 146
[3]; [9]
  mean diastolic BP, 24 hours: 76
  mean diastolic BP, 48 hours: 82
  mean systolic BP, 24 hours: 117
  mean systolic BP, 48 hours: 123
[3]; male ZDF rats, single IP 2 mg/kg, myristic acid conjugated
  duration of blood pressure lowering: ≥ 6 days
[3]; [10]
  mean lowering in diastolic blood pressure compared to scrambled Peptide 2: 12 mm Hg
  mean lowering in systolic blood pressure compared to scrambled Peptide 2: 17.4 mm Hg
[3]; single IP doses ranging from 1.0-2.5 mg/kg
  blood pressure-lowering effects, in words: potent, dose-dependent, and in many cases unexpectedly quite long-lasting
[3]; two 13-week-old male ZDF rats, myristolated 2.5 mg/kg single IP
  time until systolic and diastolic blood pressure returned to baseline: 9 days
[3]; myristolated 1 mg/kg single IP
  Acute Peak diastolic blood pressure-lowering: 10-12%
  Acute Peak mean arterial blood pressure-lowering: 6-8%
  Acute Peak systolic blood pressure-lowering: 4-10%^
  Duration of Action, diastolic BP: 4 to 6 days
  Duration of Action, mean arterial BP: 4 to 6 days
[3]; [11]
  Acute Peak diastolic blood pressure-lowering: 10-12%
  Acute Peak mean arterial blood pressure-lowering: 6-8%
  Duration of Action, systolic BP: 4 to 7 days and 7 days
[3]; [12]
  Acute Peak diastolic blood pressure-lowering: 11-19%
  Acute Peak mean arterial blood pressure-lowering: 14%
  Acute Peak systolic blood pressure-lowering: 10%
  Duration of Action, diastolic BP: 7 days
  Duration of Action, mean arterial BP: 7 days
  Duration of Action, systolic BP: 7 days
[3]; [13]
  Acute Peak diastolic blood pressure-lowering: 19%
  Acute Peak mean arterial blood pressure-lowering: 14%
[3]; [14]
  Acute Peak diastolic blood pressure-lowering: 22-25%
  Acute Peak systolic blood pressure-lowering: 7-15%
[3]; myristolated 2.0 mg/kg single IP, listed as Myr Peptide 2
  Acute Peak mean arterial blood pressure-lowering: 14-22%
[3]; [15]
  Acute Peak diastolic blood pressure-lowering: 20-25%.
  Acute Peak mean arterial blood pressure-lowering: 14-22%
  Acute Peak systolic blood pressure-lowering: 15%
[3]; [16]
  Acute Peak systolic blood pressure-lowering: 20-23%
  Duration of Action, diastolic BP: 9 days
  Duration of Action, mean arterial BP: 9 days
  Duration of Action, systolic BP: 9 days
[3]; [17]
  Acute Peak diastolic blood pressure-lowering: 18-35%
  Acute Peak mean arterial blood pressure-lowering: 28-30%
[3]; [18]
  Acute Peak diastolic blood pressure-lowering: 18-36%
  Acute Peak mean arterial blood pressure-lowering: 19-30%
  Acute Peak systolic blood pressure-lowering: 23%
[4]
  solubility in water, in words: lower solubility in water
